According to patent publication US20170120592A1, “INK JET RECORDING METHOD AND INK JET RECORDING APPARATUS” (CANON KABUSHIKI KAISHA, priority 2015, published 2017):

Assay: Water-solubility of dye
Format: physicochemical
Conditions: maximum mass of the dye in a sodium salt form that can be dissolved in 100 g of pure water at 20° C.

Molecule	water-solubility of the dye
C.I. Direct Red 249	(21 g)
CCN(Cc1cccc(S(=O)(=O)[O-])c1)c1ccc(C(=C2C=CC(=[N+](CC)Cc3cccc(S(=O)(=O)[O-])c3)C=C2)c2ccccc2S(=O)(=O)[O-])cc1.[Na+].[Na+] [C.I. Acid Blue 9]	Blue 9 (40 g)
C.I. Direct Yellow 86	(10 g)

Now from value to molecule:

water-solubility of the dye	Molecule
(30 g)	C.I. Direct Blue 199
(14 g)	C.I. Direct Red 289
